Assays:
Assay in all cases: biochemical
Parameters in all cases: DiscoverX KinomeScan competition binding assay across human kinases; per cent of control at 10 and 100 uM
PIK3CA(C420R) = PIK3CA(C420R) (Homo sapiens, UniProt P42336, C420R); conditions: competition binding, % of control; read-out: Percent Control (100 uM Levosimendan)
How it was run: (§1)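 Binding is expressed as %control, normalised between positive and negative control signals. The compound (levosimendan) was tested at 10 μM and 100 μM in the DiscoverX KinomeScan competition binding format against human kinases.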

ARK5 = biological target: T1, ARK5 (Homo sapiens, UniProt O60285); conditions: competition binding, % of control; read-out: Percent Control (100 uM Levosimendan)
T1 construct: gene NUAK1
T1 sequence (O60285 whole entry): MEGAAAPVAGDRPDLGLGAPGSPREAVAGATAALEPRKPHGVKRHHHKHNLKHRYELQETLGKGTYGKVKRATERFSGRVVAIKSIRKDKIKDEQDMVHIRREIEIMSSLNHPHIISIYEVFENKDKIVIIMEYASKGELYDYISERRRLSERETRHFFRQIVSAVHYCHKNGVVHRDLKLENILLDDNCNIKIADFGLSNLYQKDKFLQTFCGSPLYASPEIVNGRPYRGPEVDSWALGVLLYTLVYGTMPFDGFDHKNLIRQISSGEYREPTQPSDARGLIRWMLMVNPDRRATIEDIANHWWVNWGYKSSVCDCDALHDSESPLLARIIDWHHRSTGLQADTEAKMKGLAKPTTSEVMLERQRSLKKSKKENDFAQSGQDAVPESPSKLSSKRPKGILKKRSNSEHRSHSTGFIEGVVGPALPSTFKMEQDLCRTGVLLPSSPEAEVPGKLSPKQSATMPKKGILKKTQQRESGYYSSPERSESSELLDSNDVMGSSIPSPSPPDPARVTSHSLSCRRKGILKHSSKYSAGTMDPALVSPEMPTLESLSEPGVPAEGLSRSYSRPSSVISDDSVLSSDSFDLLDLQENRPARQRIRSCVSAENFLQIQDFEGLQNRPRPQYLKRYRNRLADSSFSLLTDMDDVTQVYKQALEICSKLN
How it was run: as §1

ABL2 = ABL2 (Homo sapiens, UniProt P42684); conditions: competition binding, % of control; read-out: Percent Control (100 uM Levosimendan)
How it was run: as §1

RIOK2 = RIOK2 (Homo sapiens, UniProt Q9BVS4); conditions: competition binding, % of control
Chain of RIOK2 (Q9BVS4 whole entry): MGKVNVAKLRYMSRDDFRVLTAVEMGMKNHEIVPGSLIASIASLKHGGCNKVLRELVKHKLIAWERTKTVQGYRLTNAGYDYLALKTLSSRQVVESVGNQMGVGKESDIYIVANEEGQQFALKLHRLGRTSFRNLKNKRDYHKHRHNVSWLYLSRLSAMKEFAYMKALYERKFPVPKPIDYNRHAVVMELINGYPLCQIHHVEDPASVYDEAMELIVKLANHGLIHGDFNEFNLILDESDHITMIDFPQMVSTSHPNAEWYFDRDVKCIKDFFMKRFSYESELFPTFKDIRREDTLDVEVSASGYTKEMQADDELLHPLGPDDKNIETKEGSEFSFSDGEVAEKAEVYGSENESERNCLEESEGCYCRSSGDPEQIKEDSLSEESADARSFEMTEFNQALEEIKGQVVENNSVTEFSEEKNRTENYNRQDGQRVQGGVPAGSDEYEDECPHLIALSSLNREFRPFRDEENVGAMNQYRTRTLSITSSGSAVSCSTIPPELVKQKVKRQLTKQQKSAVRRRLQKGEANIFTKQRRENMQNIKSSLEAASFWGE
How it was run: as §1

AMPK-alpha2 = biological target: T2, AMPK-alpha2 (Homo sapiens, UniProt P54646); conditions: competition binding, % of control; read-out: Percent Control (100 uM Levosimendan)
T2 construct: gene PRKAA2
How it was run: as §1

CLK1 = CLK1 (Homo sapiens, UniProt P49759); conditions: competition binding, % of control; read-out: Percent Control (100 uM Levosimendan)
How it was run: as §1

EGFR(S752-I759del) = EGFR(S752-I759del) (Homo sapiens, UniProt P00533, DEL752-759); conditions: competition binding, % of control; read-out: Percent Control (100 uM Levosimendan)
How it was run: as §1

PIM2 = PIM2 (Homo sapiens, UniProt Q9P1W9); conditions: competition binding, % of control
Chain of PIM2 (Q9P1W9 whole entry): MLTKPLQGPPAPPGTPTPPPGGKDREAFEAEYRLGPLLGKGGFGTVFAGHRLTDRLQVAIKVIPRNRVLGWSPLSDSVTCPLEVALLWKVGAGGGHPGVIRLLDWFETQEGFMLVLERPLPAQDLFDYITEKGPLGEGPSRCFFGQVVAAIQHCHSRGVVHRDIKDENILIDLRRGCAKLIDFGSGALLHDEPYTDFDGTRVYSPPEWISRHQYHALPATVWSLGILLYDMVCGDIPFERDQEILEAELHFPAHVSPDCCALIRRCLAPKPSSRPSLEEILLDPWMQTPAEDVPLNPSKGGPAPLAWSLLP
How it was run: as §1

NEK9 = NEK9 (Homo sapiens, UniProt Q8TD19); conditions: competition binding, % of control; read-out: Percent Control (100 uM Levosimendan)
How it was run: as §1

ACVRL1 = ACVRL1 (Homo sapiens, UniProt P37023); conditions: competition binding, % of control
Chain of ACVRL1 (P37023 whole entry): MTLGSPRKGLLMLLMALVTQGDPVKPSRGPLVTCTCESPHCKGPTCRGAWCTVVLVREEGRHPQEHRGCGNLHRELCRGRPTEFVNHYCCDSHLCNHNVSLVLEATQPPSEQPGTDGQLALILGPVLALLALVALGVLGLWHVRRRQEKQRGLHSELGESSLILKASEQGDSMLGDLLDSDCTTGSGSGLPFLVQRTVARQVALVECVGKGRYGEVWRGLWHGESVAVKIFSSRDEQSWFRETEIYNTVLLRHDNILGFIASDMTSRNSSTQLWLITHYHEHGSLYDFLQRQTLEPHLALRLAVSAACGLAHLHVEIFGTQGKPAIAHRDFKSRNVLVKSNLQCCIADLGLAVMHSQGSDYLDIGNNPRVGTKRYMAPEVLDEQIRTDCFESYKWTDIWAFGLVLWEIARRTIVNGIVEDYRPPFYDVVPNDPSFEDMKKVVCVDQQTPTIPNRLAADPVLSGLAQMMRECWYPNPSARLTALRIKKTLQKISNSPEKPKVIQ
How it was run: as §1

CASK = CASK (Homo sapiens, UniProt O14936); conditions: competition binding, % of control; read-out: Percent Control (100 uM Levosimendan)
How it was run: as §1

PRKD2 = PRKD2 (Homo sapiens, UniProt Q9BZL6); conditions: competition binding, % of control; read-out: Percent Control (100 uM Levosimendan)
Chain of PRKD2 (Q9BZL6 whole entry): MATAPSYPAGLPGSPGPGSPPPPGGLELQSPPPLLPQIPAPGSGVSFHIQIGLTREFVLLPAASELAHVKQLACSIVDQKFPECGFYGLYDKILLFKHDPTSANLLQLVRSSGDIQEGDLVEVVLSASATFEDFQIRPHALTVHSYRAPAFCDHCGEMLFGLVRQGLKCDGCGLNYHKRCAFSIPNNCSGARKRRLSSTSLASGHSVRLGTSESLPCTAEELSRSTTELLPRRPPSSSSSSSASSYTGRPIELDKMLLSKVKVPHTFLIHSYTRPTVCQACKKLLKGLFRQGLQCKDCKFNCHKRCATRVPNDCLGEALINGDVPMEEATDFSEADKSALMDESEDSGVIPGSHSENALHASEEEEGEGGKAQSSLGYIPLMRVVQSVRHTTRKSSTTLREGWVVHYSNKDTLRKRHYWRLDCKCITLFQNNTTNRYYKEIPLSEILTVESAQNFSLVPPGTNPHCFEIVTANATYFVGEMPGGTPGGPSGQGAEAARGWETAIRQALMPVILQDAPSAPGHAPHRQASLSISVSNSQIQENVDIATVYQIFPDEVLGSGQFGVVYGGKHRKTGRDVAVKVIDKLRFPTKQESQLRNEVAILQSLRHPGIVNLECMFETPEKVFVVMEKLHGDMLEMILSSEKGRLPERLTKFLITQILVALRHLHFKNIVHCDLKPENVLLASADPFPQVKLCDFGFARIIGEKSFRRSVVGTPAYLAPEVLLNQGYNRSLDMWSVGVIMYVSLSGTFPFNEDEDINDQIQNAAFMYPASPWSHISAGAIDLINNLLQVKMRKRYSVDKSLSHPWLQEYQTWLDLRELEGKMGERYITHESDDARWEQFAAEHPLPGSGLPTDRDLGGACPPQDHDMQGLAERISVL
How it was run: as §1

EPHA3 = EPHA3 (Homo sapiens, UniProt P29320); conditions: competition binding, % of control; read-out: Percent Control (100 uM Levosimendan)
How it was run: as §1

MAPKAPK5 = MAPKAPK5 (Homo sapiens, UniProt Q8IW41); conditions: competition binding, % of control; read-out: Percent Control (100 uM Levosimendan)
How it was run: as §1

PIK3CA(I800L) = PIK3CA(I800L) (Homo sapiens, UniProt P42336, I800L); conditions: competition binding, % of control; read-out: Percent Control (100 uM Levosimendan)
How it was run: as §1

ERK5 = biological target: T3, ERK5 (Homo sapiens, UniProt Q13164); conditions: competition binding, % of control; read-out: Percent Control (100 uM Levosimendan)
T3 construct: gene MAPK7
T3 sequence (Q13164 whole entry): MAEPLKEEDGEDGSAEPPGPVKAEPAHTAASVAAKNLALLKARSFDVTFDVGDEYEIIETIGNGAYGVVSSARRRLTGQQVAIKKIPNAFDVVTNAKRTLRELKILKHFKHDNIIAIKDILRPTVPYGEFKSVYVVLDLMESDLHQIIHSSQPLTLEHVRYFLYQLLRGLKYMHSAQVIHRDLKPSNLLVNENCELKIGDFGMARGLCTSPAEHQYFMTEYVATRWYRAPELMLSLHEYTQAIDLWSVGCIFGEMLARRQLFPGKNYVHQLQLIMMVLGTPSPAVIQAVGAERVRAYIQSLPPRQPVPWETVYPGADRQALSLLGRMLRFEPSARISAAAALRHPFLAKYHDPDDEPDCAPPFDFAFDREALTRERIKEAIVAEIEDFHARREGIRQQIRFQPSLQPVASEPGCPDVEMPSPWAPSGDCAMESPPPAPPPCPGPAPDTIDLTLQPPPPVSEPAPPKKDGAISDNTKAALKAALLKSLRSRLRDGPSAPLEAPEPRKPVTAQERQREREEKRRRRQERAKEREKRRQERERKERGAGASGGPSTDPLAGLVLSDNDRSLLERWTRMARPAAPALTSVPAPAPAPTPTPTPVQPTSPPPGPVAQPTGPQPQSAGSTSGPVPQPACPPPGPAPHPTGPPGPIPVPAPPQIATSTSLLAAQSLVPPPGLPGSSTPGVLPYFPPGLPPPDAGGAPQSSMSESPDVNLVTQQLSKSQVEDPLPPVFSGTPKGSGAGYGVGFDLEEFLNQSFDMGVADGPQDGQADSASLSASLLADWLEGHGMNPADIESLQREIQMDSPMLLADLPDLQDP
How it was run: as §1

RIPK1 = RIPK1 (Homo sapiens, UniProt Q13546); conditions: competition binding, % of control; read-out: Percent Control (100 uM Levosimendan)
How it was run: as §1

PCTK1 = biological target: T4, PCTK1 (Homo sapiens, UniProt Q00536); conditions: competition binding, % of control; read-out: Percent Control (100 uM Levosimendan)
T4 construct: gene CDK16
How it was run: as §1

QSK = biological target: T5, QSK (Homo sapiens, UniProt Q9Y2K2); conditions: competition binding, % of control; read-out: Percent Control (100 uM Levosimendan)
T5 construct: gene SIK3
T5 sequence (Q9Y2K2 whole entry): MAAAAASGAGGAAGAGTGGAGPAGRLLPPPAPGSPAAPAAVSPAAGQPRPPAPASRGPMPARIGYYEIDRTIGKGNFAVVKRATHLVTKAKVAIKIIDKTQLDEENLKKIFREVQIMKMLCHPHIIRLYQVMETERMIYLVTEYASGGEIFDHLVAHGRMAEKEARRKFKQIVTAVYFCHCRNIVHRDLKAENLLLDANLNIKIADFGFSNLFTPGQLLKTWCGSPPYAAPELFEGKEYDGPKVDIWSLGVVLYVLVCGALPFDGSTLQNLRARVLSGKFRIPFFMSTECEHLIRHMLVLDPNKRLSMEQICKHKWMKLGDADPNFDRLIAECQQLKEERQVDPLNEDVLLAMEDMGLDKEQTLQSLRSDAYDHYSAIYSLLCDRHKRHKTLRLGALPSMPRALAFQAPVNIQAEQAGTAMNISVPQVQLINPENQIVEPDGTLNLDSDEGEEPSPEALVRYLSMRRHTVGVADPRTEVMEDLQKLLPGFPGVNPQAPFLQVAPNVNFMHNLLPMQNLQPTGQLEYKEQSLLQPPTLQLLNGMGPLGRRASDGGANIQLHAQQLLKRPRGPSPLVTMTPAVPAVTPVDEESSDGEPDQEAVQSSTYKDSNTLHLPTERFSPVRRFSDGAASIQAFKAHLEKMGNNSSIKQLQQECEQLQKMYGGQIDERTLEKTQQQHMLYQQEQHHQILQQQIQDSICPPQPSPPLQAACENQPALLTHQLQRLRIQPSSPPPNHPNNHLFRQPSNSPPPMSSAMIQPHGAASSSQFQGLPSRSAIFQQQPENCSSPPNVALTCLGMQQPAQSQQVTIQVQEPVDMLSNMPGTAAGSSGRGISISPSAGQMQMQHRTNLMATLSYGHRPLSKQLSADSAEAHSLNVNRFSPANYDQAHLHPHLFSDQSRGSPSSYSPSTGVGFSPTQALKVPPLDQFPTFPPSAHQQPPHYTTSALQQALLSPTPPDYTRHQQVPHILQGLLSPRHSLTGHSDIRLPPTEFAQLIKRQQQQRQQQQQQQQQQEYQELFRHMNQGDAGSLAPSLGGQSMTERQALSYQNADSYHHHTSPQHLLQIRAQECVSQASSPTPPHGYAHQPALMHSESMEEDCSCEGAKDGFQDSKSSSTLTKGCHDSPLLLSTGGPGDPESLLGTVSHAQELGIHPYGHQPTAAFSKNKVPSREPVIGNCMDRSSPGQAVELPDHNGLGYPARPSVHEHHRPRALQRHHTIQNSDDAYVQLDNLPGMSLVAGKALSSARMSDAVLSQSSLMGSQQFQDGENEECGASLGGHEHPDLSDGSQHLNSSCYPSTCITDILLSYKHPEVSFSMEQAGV
How it was run: as §1

[1] = read-out: Percent Control (10 uM Levosimendan)
[2] = read-out: Percent Control (100 uM Levosimendan)

## C[C@@H]1CC(=O)NN=C1c1ccc(NN=C(C#N)C#N)cc1 [levosimendan]
PIK3CA(C420R)
  remaining binding at 100 µM: 100%
ARK5
  remaining binding at 100 µM: 100%
ABL2
  remaining binding at 100 µM: 89%
RIOK2; [1]
  remaining binding at 10 µM: 67%
RIOK2; [2]
  remaining binding at 100 µM: 27%
AMPK-alpha2
  remaining binding at 100 µM: 83%
CLK1
  remaining binding at 100 µM: 89%
EGFR(S752-I759del)
  remaining binding at 100 µM: 91%
PIM2; [1]
  remaining binding at 10 µM: 84%
PIM2; [2]
  remaining binding at 100 µM: 20%
NEK9
  remaining binding at 100 µM: 56%
ACVRL1; [1]
  remaining binding at 10 µM: 71%
ACVRL1; [2]
  remaining binding at 100 µM: 30%
CASK
  remaining binding at 100 µM: 88%
PRKD2
  remaining binding at 100 µM: 75%
EPHA3
  remaining binding at 100 µM: 97%
MAPKAPK5
  remaining binding at 100 µM: 100%
PIK3CA(I800L)
  remaining binding at 100 µM: 83%
ERK5
  remaining binding at 100 µM: 100%
RIPK1
  remaining binding at 100 µM: 73%
PCTK1
  remaining binding at 100 µM: 88%
QSK
  remaining binding at 100 µM: 82%

— article PMC6576746, “Rational discovery of dual-indication multi-target PDE/Kinase inhibitor for precision anti-cancer therapy using structural systems pharmacology” (PLoS Computational Biology, 2019)
